Several values for one entry are separate records, joined by “and”; a condition that tells them apart may be missing. Equal values may be shown once.
Key:
Male SD rats = test: Oral glucose tolerance test; type: in vivo, rat; conditions: dosed 30 min prior to oGTT (glucose 2 g/kg po), blood glucose AUC t=0 to t=120 minutes vs vehicle
Description: Male SD rats (200-250 g) were housed 2 per cage in a temperature-controlled room with a 12-hour light/dark cycle. They were allowed ad libitum access to water and fed with normal rodent chow. The night before the oral glucose tolerance test (oGTT), the rats were transferred to clean cages and fasted overnight. On the morning of the oGTT, the rats were weighed and randomized into groups based on fasted blood glucose and body weight. Rats were dosed with vehicle (0.5% methocel) or compounds thirty min prior to the oGTT (glucose, 2 g/kg, po). Blood was collected from the tail vein at 0, 10, 30, 60 and 120 minutes after glucose challenge to measure blood glucose; plasma was used to determine insulin levels.

rat GPR40 = rat GPR40 (Rattus norvegicus (Rat), UniProt Q8K3T4); test: GPR40 calcium flux assay, HEK293 cells stably expressing rat GPR40; type: cell-based; conditions: transfected HEK293 cells stably expressing rat GPR40; individual determinations listed; read-out: rGPR40 Ca2+ Assay EC50
Sequence of rat GPR40 (Q8K3T4 whole entry): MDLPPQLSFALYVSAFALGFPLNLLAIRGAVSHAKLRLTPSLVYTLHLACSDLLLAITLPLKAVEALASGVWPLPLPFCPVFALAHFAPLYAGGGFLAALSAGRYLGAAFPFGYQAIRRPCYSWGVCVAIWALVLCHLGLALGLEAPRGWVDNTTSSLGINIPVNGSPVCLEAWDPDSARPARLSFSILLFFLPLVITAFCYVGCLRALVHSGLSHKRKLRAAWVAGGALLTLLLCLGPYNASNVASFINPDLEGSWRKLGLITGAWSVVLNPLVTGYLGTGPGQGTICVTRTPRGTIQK
Description: (§1) Compounds were tested in a calcium flux assay using transfected HEK293 cells stably expressing either human GPR40 or rat GPR40. Human GPR40 expressing cells were cultured in DMEM-High Glucose media supplemented with 10% fetal bovine serum, 1×L-Glutamine, 1× Penicillin/Streptomycin and 500 μg/mL G418. Rat GPR40 expressing cells were cultured in DMEM-High Glucose media supplemented with 10% fetal bovine serum and 1 μg/mL puromycin. Cells were plated into poly-D-lysine coated 384-well plates and cultured overnight in a 37° C. humidified tissue culture incubator under 5% CO2/90% O2 atmosphere. On the day of the experiment, the culture media was replaced with assay buffer (HBSS, 20 mM HEPES, 0.1% BSA) and the cells incubated at 37° C. for 1 h. Calcium-sensitive fluorescent dye (Fluo 8 No-Wash Calcium Dye, ABD Bioquest) was then added and the cells incubated for another 30 min at 37° C. followed by 15 min at room temperature while protected from the light. The cell plate and a plate of diluted compounds of Formula (I) were loaded into a fluorescent plate reader that added compounds onto the cells while measuring the fluorescence intensity of each well. The plate reader recorded fluorescence intensity at 1 second intervals for 8 min and provided the data for analysis in an Excel format. EC50 values were calculated using Prism (GraphPad) software.

human GPR40 = human GPR40 (Homo sapiens (Human), UniProt O14842); test: GPR40 calcium flux assay, HEK293 cells stably expressing human GPR40; type: cell-based; conditions: transfected HEK293 cells stably expressing human GPR40; individual determinations listed; read-out: hGPR40 Ca2+ Assay EC50
Sequence of human GPR40 (O14842 whole entry): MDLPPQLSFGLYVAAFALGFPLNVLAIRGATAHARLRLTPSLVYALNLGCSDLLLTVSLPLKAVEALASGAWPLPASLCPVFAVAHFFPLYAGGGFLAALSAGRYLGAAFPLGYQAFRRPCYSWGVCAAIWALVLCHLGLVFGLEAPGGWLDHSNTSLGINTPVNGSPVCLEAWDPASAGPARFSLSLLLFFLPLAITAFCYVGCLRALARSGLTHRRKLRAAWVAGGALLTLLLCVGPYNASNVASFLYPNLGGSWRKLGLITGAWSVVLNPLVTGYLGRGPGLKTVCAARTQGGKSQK
Description: as §1

`COc1cc(-c2ncc(COc3cccc([C@@H](CC(=O)O)C4CC4)c3)nc2CC(C)C)c(F)cn1` [Cpd 2, (3S)-3-cyclopropyl-3-[3-[[5-(5-fluoro-2-methoxy-4-pyridyl)-6-isobutyl-pyrazin-2-yl]methoxy]phenyl]propanoic acid] was tested, and the “Percent Lowering of Glucose (AUC compound vs. AUC Vehicle)” value (shortened to “Percent Lowering of Glucose”) (Male SD rats) was 87%, the EC50 (rat GPR40) was 7 nM (2×) and 8 nM and 12 nM and the EC50 (human GPR40) was 2 nM (2×) and 1 nM and 3 nM.

In the case of `COc1ccc(F)c(-c2ncc(COc3cccc([C@@H](CC(=O)O)C4CC4)c3)nc2C=C(C)C)c1` [Cpd 8, (3S)-3-cyclopropyl-3-[3-[[5-(2-fluoro-5-methoxy-phenyl)-6-(2-methylprop-1-enyl)pyrazin-2-yl]methoxy]phenyl]propanoic acid], the “Percent Lowering of Glucose” value (Male SD rats) is reported as 91%, the EC50 (rat GPR40) is reported as 39 nM and 29 nM and 76 nM and 50 nM and the EC50 (human GPR40) is reported as 10 nM and 9 nM and 14 nM and 8 nM and 6 nM.

`COc1ccc(F)c(-c2ncc(COc3cccc([C@@H](CC(=O)O)C4CC4)c3)nc2OC2CCCC2)c1` [Cpd 13, (3S)-3-[3-[[6-(cyclopentoxy)-5-(2-fluoro-5-methoxy-phenyl)pyrazin-2-yl]methoxy]phenyl]-3-cyclopropyl-propanoic acid] was tested, and the “Percent Lowering of Glucose” value (Male SD rats) was 84%, the EC50 (rat GPR40) was 31 nM and 30 nM (2×) and 53 nM and 33 nM and the EC50 (human GPR40) was 19 nM (2×) and 20 nM and 10 nM and 8 nM.

`COc1ccc(F)c(-c2ncc(COc3cccc([C@@H](CC(=O)O)C4CC4)c3)nc2C2=CCCC2(C)C)c1` [Cpd 30, (3S)-3-cyclopropyl-3-[3-[[6-(5,5-dimethylcyclopenten-1-yl)-5-(2-fluoro-5-methoxy-phenyl)pyrazin-2-yl]methoxy]phenyl]propanoic acid] was tested, and the “Percent Lowering of Glucose” value (Male SD rats) was 87%.

With `COc1ccc(F)c(-c2ncc(COc3cccc([C@@H](CC(=O)O)C4CC4)c3)nc2OCCC(F)(F)F)c1` [Cpd 32, (3S)-3-cyclopropyl-3-[3-[[5-(2-fluoro-5-methoxy-phenyl)-6-(3,3,3-trifluoropropoxy)pyrazin-2-yl]methoxy]phenyl]propanoic acid] the EC50 (rat GPR40) was 119 nM and 94 nM and the EC50 (human GPR40) was 30 nM and 28 nM.

`COc1ccc(F)c(-c2ncc(COc3cccc([C@@H](CC(=O)O)C4CC4)c3)nc2-c2sccc2C)c1` [Cpd 33, (3S)-3-cyclopropyl-3-[3-[[5-(2-fluoro-5-methoxy-phenyl)-6-(3-methyl-2-thienyl)pyrazin-2-yl]methoxy]phenyl]propanoic acid] was tested, and the EC50 (rat GPR40) was 120 nM and 110 nM and 100 nM and 82 nM and the EC50 (human GPR40) was 34 nM and 27 nM.

In the case of `COc1ccc(F)c(-c2ncc(COc3cccc([C@@H](CC(=O)O)C4CC4)c3)nc2N(C)C(C)C)c1` [Cpd 34, (3S)-3-cyclopropyl-3-[3-[[5-(2-fluoro-5-methoxy-phenyl)-6-[isopropyl(methyl)amino]pyrazin-2-yl]methoxy]phenyl]propanoic acid], the EC50 (rat GPR40) is reported as 112 nM and 104 nM and 88 nM and 86 nM and the EC50 (human GPR40) is reported as 33 nM and 30 nM.

`COc1cccc(-c2ncc(COc3cccc([C@@H](CC(=O)O)C4CC4)c3)nc2C2=CCCC2(C)C)c1` [Cpd 35, (3S)-3-cyclopropyl-3-[3-[[6-(5,5-dimethylcyclopenten-1-yl)-5-(3-methoxyphenyl)pyrazin-2-yl]methoxy]phenyl]propanoic acid] was tested, and the EC50 (rat GPR40) was 356 nM and 242 nM and the EC50 (human GPR40) was 50 nM and 25 nM.

In the case of `COc1ccc(F)c(-c2ncc(COc3cccc([C@@H](CC(=O)O)C4CC4)c3)nc2-c2ccc(C)s2)c1` [Cpd 36, (3S)-3-cyclopropyl-3-[3-[[5-(2-fluoro-5-methoxy-phenyl)-6-(5-methyl-2-thienyl)pyrazin-2-yl]methoxy]phenyl]propanoic acid], the EC50 (rat GPR40) is reported as 118 nM and 109 nM and 105 nM and 86 nM and the EC50 (human GPR40) is reported as 40 nM and 38 nM.

With `COc1ccc(F)c(-c2ncc(COc3cccc([C@@H](CC(=O)O)C4CC4)c3)nc2C(C)C)c1` [Cpd 37, (3S)-3-cyclopropyl-3-[3-[[5-(2-fluoro-5-methoxy-phenyl)-6-isopropyl-pyrazin-2-yl]methoxy]phenyl]propanoic acid] the EC50 (rat GPR40) was 141 nM and 109 nM and the EC50 (human GPR40) was 45 nM and 44 nM.

With `COc1ccc(F)c(-c2ncc(COc3cccc([C@@H](CC(=O)O)C4CC4)c3)nc2N(C)C)c1` [Cpd 38, (3S)-3-cyclopropyl-3-[3-[[6-(dimethylamino)-5-(2-fluoro-5-methoxy-phenyl)pyrazin-2-yl]methoxy]phenyl]propanoic acid] the EC50 (rat GPR40) was 399 nM and 395 nM and the EC50 (human GPR40) was 55 nM and 42 nM.

In the case of `COc1ccc(F)c(-c2ncc(COc3cccc([C@@H](CC(=O)O)C4CC4)c3)nc2C2CC2)c1` [Cpd 39, (3S)-3-cyclopropyl-3-[3-[[6-cyclopropyl-5-(2-fluoro-5-methoxy-phenyl)pyrazin-2-yl]methoxy]phenyl]propanoic acid], the EC50 (rat GPR40) is reported as 395 nM and 358 nM and 247 nM and 208 nM and the EC50 (human GPR40) is reported as 130 nM and 98 nM and 64 nM and 50 nM.

In the case of `COc1ccc(F)c(-c2ncc(COc3cccc([C@@H](CC(=O)O)C4CC4)c3)nc2C(C)C(F)(F)F)c1` (stereo partly drawn) [Cpd 40, (3S)-3-cyclopropyl-3-[3-[[5-(2-fluoro-5-methoxy-phenyl)-6-(2,2,2-trifluoro-1-methyl-ethyl)pyrazin-2-yl]methoxy]phenyl]propanoic acid], the EC50 (rat GPR40) is reported as 253 nM and 249 nM and 236 nM and 227 nM and the EC50 (human GPR40) is reported as 64 nM and 52 nM.

For `COc1ccc(F)c(-c2ncc(COc3cccc([C@@H](CC(=O)O)C4CC4)c3)nc2OC2COC2)c1` [Cpd 41, (3S)-3-cyclopropyl-3-[3-[[5-(2-fluoro-5-methoxy-phenyl)-6-(oxetan-3-yloxy)pyrazin-2-yl]methoxy]phenyl]propanoic acid], the EC50 (rat GPR40) was 553 nM and 416 nM and the EC50 (human GPR40) was 79 nM and 69 nM.

In the case of `COc1ccc(F)c(-c2ncc(COc3cccc([C@@H](CC(=O)O)C4CC4)c3)nc2OCC2CC(C)(C)C2)c1` [Cpd 42, (3S)-3-cyclopropyl-3-[3-[[6-[(3,3-dimethylcyclobutyl)methoxy]-5-(2-fluoro-5-methoxy-phenyl)pyrazin-2-yl]methoxy]phenyl]propanoic acid], the EC50 (rat GPR40) is reported as 32 nM and 29 nM and the EC50 (human GPR40) is reported as 17 nM and 14 nM.

With `COc1ccc(F)c(-c2ncc(COc3cccc([C@@H](CC(=O)O)C4CC4)c3)nc2-c2ccc(C(C)(C)C)s2)c1` [Cpd 43, (3S)-3-[3-[[6-(5-tert-butyl-2-thienyl)-5-(2-fluoro-5-methoxy-phenyl)pyrazin-2-yl]methoxy]phenyl]-3-cyclopropyl-propanoic acid] the EC50 (rat GPR40) was 81 nM and 55 nM and the EC50 (human GPR40) was 15 nM and 12 nM.

In the case of `COc1ccc(F)c(-c2ncc(COc3cccc([C@@H](CC(=O)O)C4CC4)c3)nc2NCC(C)(C)C)c1` [Cpd 44, (3S)-3-cyclopropyl-3-[3-[[6-(2,2-dimethylpropylamino)-5-(2-fluoro-5-methoxy-phenyl)pyrazin-2-yl]methoxy]phenyl]propanoic acid], the EC50 (rat GPR40) is reported as 59 nM and 69 nM and the EC50 (human GPR40) is reported as 17 nM and 11 nM.

For `COc1ccc(F)c(-c2ncc(COc3cccc([C@@H](CC(=O)O)C4CC4)c3)nc2N2CCOCC2)c1` [Cpd 45, (3S)-3-cyclopropyl-3-[3-[[5-(2-fluoro-5-methoxy-phenyl)-6-morpholinopyrazin-2-yl]methoxy]phenyl]propanoic acid], the EC50 (rat GPR40) was 138 nM and 134 nM and the EC50 (human GPR40) was 34 nM.

For `COc1cccc(-c2ncc(COc3cccc([C@@H](CC(=O)O)C4CC4)c3)nc2C2=CCCC2(C)C)c1F` [Cpd 46, (3S)-3-cyclopropyl-3-[3-[[6-(5,5-dimethylcyclopenten-1-yl)-5-(2-fluoro-3-methoxy-phenyl)pyrazin-2-yl]methoxy]phenyl]propanoic acid], the EC50 (rat GPR40) was 637 nM and 788 nM and the EC50 (human GPR40) was 130 nM and 127 nM.

With `COc1cc(-c2ncc(COc3cccc([C@@H](CC(=O)O)C4CC4)c3)nc2OCC(C)(C)C)c(F)cn1` [Cpd 47, (3S)-3-cyclopropyl-3-[3-[[6-(2,2-dimethylpropoxy)-5-(5-fluoro-2-methoxy-4-pyridyl)pyrazin-2-yl]methoxy]phenyl]propanoic acid] the EC50 (rat GPR40) was 13 nM and 14 nM and the EC50 (human GPR40) was 3 nM.

In the case of `COc1cc(-c2ncc(COc3cccc([C@@H](CC(=O)O)C4CC4)c3)nc2OCC2CC2)c(F)cn1` [Cpd 48, (3S)-3-cyclopropyl-3-[3-[[6-(cyclopropylmethoxy)-5-(5-fluoro-2-methoxy-4-pyridyl)pyrazin-2-yl]methoxy]phenyl]propanoic acid], the EC50 (rat GPR40) is reported as 138 nM and 152 nM and the EC50 (human GPR40) is reported as 35 nM and 32 nM.

— patent publication US9688642B2, “Substituted pyrazines as GPR40 agonists” (Janssen Pharmaceutica NV, priority 2014, dated 2017)
